Experiment: Comparison of solubility: time required for complete dissolution of solid forms in pH 5.0 buffer
Assay type: physicochemical
Conditions: 25 mM potassium acetate buffer solution (pH 5.0), room temperature, concentration of 5 mg/mL, shaken at about 100 rpm
Procedure: (Comparison of Solubility)
Next, the length of time required to dissolve about […] of the solid forms of formula (I) compound at room temperature in a pH 5.0 acetic acid buffer solution were measured.
After adding, at room temperature, a 25 mM potassium acetate buffer solution (pH 5.0) to, respectively, 10 mg of the white crystals prepared in Example 7, 10 mg of the amorphous powder prepared in Example 10, and 5 mg of the amorphous mass prepared in Example 11 in order to make a concentration of 5 mg/mL in each sample, the length of time required for complete dissolution under shaken at about 100 rpm was measured.

time required for dissolution | SMILES
about 10 seconds | CCC(O)C(C)C1OC1CC(C)(O)/C=C/C=C(\C)C1OC(=O)CC(O)CCC(C)(O)C(OC(=O)N2CCN(C3CCCCCC3)CC2)/C=C/C1C (stereo not drawn) [Amorphous powder, (8E,12E,14E)-7-{(4-cycloheptylpiperazin-1-yl)carbonyl}oxy-3,6,16,21-tetrahydroxy-6,10,12,16,20-pentamethyl-18,19-epoxytricosa-8,12,14-trien-11-olide]
about 32 seconds | CCC(O)C(C)C1OC1CC(C)(O)/C=C/C=C(\C)C1OC(=O)CC(O)CCC(C)(O)C(OC(=O)N2CCN(C3CCCCCC3)CC2)/C=C/C1C (stereo not drawn) [Crystals, (8E,12E,14E)-7-{(4-cycloheptylpiperazin-1-yl)carbonyl}oxy-3,6,16,21-tetrahydroxy-6,10,12,16,20-pentamethyl-18,19-epoxytricosa-8,12,14-trien-11-olide]
about 215 seconds | CCC(O)C(C)C1OC1CC(C)(O)/C=C/C=C(\C)C1OC(=O)CC(O)CCC(C)(O)C(OC(=O)N2CCN(C3CCCCCC3)CC2)/C=C/C1C (stereo not drawn) [Amorphous mass, (8E,12E,14E)-7-{(4-cycloheptylpiperazin-1-yl)carbonyl}oxy-3,6,16,21-tetrahydroxy-6,10,12,16,20-pentamethyl-18,19-epoxytricosa-8,12,14-trien-11-olide]
